From patent US6452067B1, “Methods to assay for post-transcriptional suppression of gene expression” (DNA Plant Technology Corporation, priority 1997, dated 2002)

Key:
Type in all cases: cell-based
[1] = test system: 1345 tomato (an LE-ACS-2 suppressant) leaf explants; experiment: GUS assay of SSR pPO7110 in precultured leaf explants, 1345 tomato
Protocol: (§1) Two 4 mm discs were cut from each leaf and placed into a solution of Agrobacteria harboring either the suppression-sensitive GUS reporter construct pPO7110 or a control, nonsuppression-sensitive GUS construct, such as pPO7113, that lacks LE-ACS-2 sequences but is identical in every other respect. The Agrobacteria were previously grown in minimal medium containing sucrose and tetracycline at 1 mg/l to an apparent optical density of about 0.2 at 550 nm. Cultures at densities ranging from 0.1-0.4 were used, but the final density was always adjusted to 0.2 at 550 nm using growth medium. Discs were incubated with the Agrobacteria for 0.5-1.5 minutes, then removed and placed on sterile filter paper that was placed on top of tomato cocultivation medium (MS salts with IAA @ 0.05 mg/l, zeatin @ 1 mg/l and 100 μM acetosyringone and 1% gelrite).
(§2) The plates were incubated at 28° C. in the dark for 2.5 days whereupon the discs were removed and stained for GUS activity using 5-bromo-4-chloro-3-indolyl […] (X-Gluc). The discs were vacuum infiltrated for 2 minutes with the substrate solution containing 100 mM potassium phosphate pH 7.0, 10 mM EDTA, 2 mM potassium ferricyanide, 2 mM potassium ferrocyanide, 500 mg/1 X-Gluc, and 0.1% Triton X-100. Incubation was continued overnight (about 14-16 hr) at 37° C. and the plates were visually inspected for the presence of the insoluble blue precipitate a product of the GUS enzyme acting on the X-Gluc substrate. Tissues derived from nontransformed plants or transformed plants not displaying sense suppression will show the presence of a blue precipitate indicative of GUS activity while tissue derived from plants in the suppressed state will show no or comparatively little blue precipitate.
(§3) Strawberry plants which were continuously cultured in axenic conditions in vitro are used as a source of leaf explants. No ethanol dip or other form of surface sterilization was done on the strawberry leaves. […] This preculture step was carried out under lights at 28° C. for 4 days.
(§4) Three different concentrations of acetyosyringone were used in the preculture medium, 100 μM, 250 μM and 1000 μM.

strawberry leaf explants = experiment: GUS assay in precultured leaf explants, strawberry
Protocol: as §1, §2, §3, §4

[2] = test system: control tomato (line 91103, nontransformed control) leaf explants; experiment: GUS assay of SSR pPO7110 in precultured leaf explants, control tomato
Protocol: as §1, §2, §3, §4

[3] = 1 mg/l hormone in preculture/cocultivation medium, 0-10 scale
[4] = vac 100AS (100 μM acetosyringone in preculture medium)
[5] = vac 250AS (250 μM acetosyringone)
[6] = vac 1000AS (1000 μM acetosyringone)

| Structure (SMILES) | GUS Assay Results, visual rating of GUS staining (mean in parentheses) [1, 3] | GUS Assay Results, visual rating of GUS staining (mean in parentheses) (strawberry leaf explants; [3]) | GUS Assay Results, visual rating of GUS staining (mean in parentheses) [2, 3] | GUS Assay Results, visual rating of GUS staining (mean in parentheses) [1, 4] | GUS Assay Results, visual rating of GUS staining (mean in parentheses) [1, 5] | GUS Assay Results, visual rating of GUS staining (mean in parentheses) [1, 6] | GUS Assay Results, visual rating of GUS staining (mean in parentheses) (strawberry leaf explants; [4]) | GUS Assay Results, visual rating of GUS staining (mean in parentheses) (strawberry leaf explants; [5]) | GUS Assay Results, visual rating of GUS staining (mean in parentheses) (strawberry leaf explants; [6]) | GUS Assay Results, visual rating of GUS staining (mean in parentheses) [2, 4] | GUS Assay Results, visual rating of GUS staining (mean in parentheses) [2, 5] | GUS Assay Results, visual rating of GUS staining (mean in parentheses) [2, 6] | GUS Assay Results, visual rating of GUS staining (mean in parentheses) ([1]; 3 mg/l NAA) | GUS Assay Results, visual rating of GUS staining (mean in parentheses) (strawberry leaf explants; 3 mg/l NAA) | GUS Assay Results, visual rating of GUS staining (mean in parentheses) ([2]; 3 mg/l NAA) |
| --- | --- | --- | --- | --- | --- | --- | --- | --- | --- | --- | --- | --- | --- | --- | --- |
| O=C(O)COc1ccc(Cl)cc1Cl [2,4-D] | 2,2,3 (2.3) | 0,0,0,0 (0) | 3,4,7,8 (5.5) | – | – | – | – | – | – | – | – | – | – | – | – |
| COc1cc(C(C)=O)cc(OC)c1O [AS, acetosyringone] | – | – | – | 0,0,0,0 (0) | 0,0,0,0 (0) | 0,0,0,0 (0) | 0,0,0,0 (0) | 0,0,0,0 (0) | 0,0,0,0 (0) | 0,0,0,0 (0) | 0,0,0,0 (0) | 0,0,1,2 (0.8) | – | – | – |
| O=C(O)Cc1c[nH]c2ccccc12 [IAA] | 0,4,4,6 (4.7) | 0,0,0,0 (0) | 5,8,9,9 (7.8) | – | – | – | – | – | – | – | – | – | – | – | – |
| O=C(O)Cc1cccc2ccccc12 [NAA] | 0,0,0,1 (0.3) | 0,0,0,0 (0) | 0,1,3,3 (1.8) | – | – | – | – | – | – | – | – | – | 0,1,2,4 (1.8) | 0,0,0,1 (0.3) | 3,6,6,6 (5.25) |
